Laboratory results taken from patent publication US10538555B2, “Macrocyclic inhibitors of the PD-1/PD-L1 and CD80(B7-1)/PD-L1 protein/protein interactions” (BRISTOL-MYERS SQUIBB COMPANY, priority 2014, dated 2020).
*1 amine or outer side, *2 acyl side, *3 side chain or, on linkers, in order; H or OH if unused. Where a SMILES comes first, the peptide text is derived from it. Bridges are numbered along the chain shown (N, C = ends). [ ]: non-standard residue; d: D form. ξ: configuration not given here. Phe(3,4,5-F3) = N[C@@H](Cc1cc(F)c(F)c(F)c1)C(=O)O; NMePhe(4-F) = CN[C@@H](Cc1ccc(F)cc1)C(=O)O; ξTrp(7-aza) = NC(Cc1c[nH]c2ncccc12)C(=O)O; d(cisHyp) = O=C(O)[C@H]1C[C@@H](O)CN1; NMeY = CN[C@@H](Cc1ccc(O)cc1)C(=O)O; Hyp = O=C(O)[C@@H]1C[C@@H](O)CN1; NMeF = CN[C@@H](Cc1ccccc1)C(=O)O; X1 = O=C([C@H]1COCCN1[*:1])[*:2]; dPip(4-aza) = O=C(O)[C@H]1CNCCN1; 4Pal = N[C@@H](Cc1ccncc1)C(=O)O; dHyp = O=C(O)[C@H]1C[C@H](O)CN1; Cha = N[C@@H](CC1CCCCC1)C(=O)O; NMeNle = CCCC[C@H](NC)C(=O)O; hSer = N[C@@H](CCO)C(=O)O; NMeA = CN[C@@H](C)C(=O)O; Orn = NCCC[C@H](N)C(=O)O; Dab = NCC[C@H](N)C(=O)O; dAze = O=C(O)[C@H]1CCN1; Dap = NC[C@H](N)C(=O)O; ξC = NC(CS)C(=O)O; Sar = CNCC(=O)O

Target: T1, Human PD-L1/PD-1 (Homo sapiens, UniProt Q9NZQ7)
T1 construct: TVMV protease cleavage site (C); made in house; host or cells: HEK293T cells
T1 sequence (Q9NZQ7 with tags, fused parts or gaps): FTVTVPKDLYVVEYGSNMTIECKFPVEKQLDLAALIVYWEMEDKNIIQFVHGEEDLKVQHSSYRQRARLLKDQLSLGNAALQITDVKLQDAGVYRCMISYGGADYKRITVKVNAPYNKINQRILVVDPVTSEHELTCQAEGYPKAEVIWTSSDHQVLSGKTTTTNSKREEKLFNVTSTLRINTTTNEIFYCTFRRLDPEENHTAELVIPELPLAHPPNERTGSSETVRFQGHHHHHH
Test: HTRF Human PD-L1/PD-1 binding assay (PD-1-Ig/PD-L1-His)
Details: PD-L1-His 10 nM, PD-1-Ig 20 nM; class symbol; read-out: HTRF Human PD-L1/PD-1 Binding Assay IC50 Range
Procedure, shortened: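 Soluble HEK293T-expressed proteins: hPD-L1-His 10 nM, hPD-1-Ig 20 nM final. Cpd + PD-L1 15 min, + PD-1 15 min, + Eu anti-Ig 1 nM/APC anti-His 20 nM 30 min. Buffer dPBS, 0.1% BSA, 0.05% Tween-20. TR-FRET 665/620.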

SMILES	IC50 [nM]
CCCC[C@H]1C(=O)N(C)CC(=O)N[C@@H](CC(=O)O)C(=O)N[C@@H](C(C)C)C(=O)N(C)[C@@H](Cc2ccccc2)C(=O)N[C@@H](Cc2ccc(O)cc2)C(=O)N(C)CC(=O)NC(Cc2c[nH]c3ncccc23)C(=O)N[C@@H](Cc2ccc(O)cc2)C(=O)N[C@@H](CC(C)C)C(=O)N[C@H](C(=O)NCC(N)=O)CSCC(=O)N[C@@H](CC2CCCCC2)C(=O)N(C)[C@@H](Cc2ccccc2)C(=O)N1C (stereo partly shown) [Example 3240] ({CH2CO}-[Cha][NMeF][NMeNle][Sar]DV[NMeF]Y[Sar][ξTrp(7-aza)]YLCG-NH2; thioether N-13)	100 to 990
CCCC[C@H]1C(=O)N(C)[C@@H](CCCC)C(=O)N[C@@H](CCC(=O)O)C(=O)N[C@H](C(=O)NCC(N)=O)CSCC(=O)N[C@@H](Cc2ccc(OC)cc2)C(=O)N(C)[C@@H](C)C(=O)N[C@@H](CC(N)=O)C(=O)N2CCC[C@H]2C(=O)N[C@@H](CN)C(=O)N[C@@H](CCCCN)C(=O)N2C[C@H](O)C[C@H]2C(=O)N[C@@H](Cc2c[nH]c3ccccc23)C(=O)N[C@@H](CC(=O)O)C(=O)N[C@@H](Cc2c[nH]c3ccccc23)C(=O)N1C [Example 7127] ({CH2CO}-Y(Me)[NMeA]NP[Dap]K[Hyp]WDW[NMeNle][NMeNle]ECG-NH2; thioether N-14)	10 to 99.9
CCCC[C@H]1C(=O)N(C)[C@@H](CCCC)C(=O)N[C@@H](CCC(=O)O)C(=O)N[C@H](C(=O)NCC(N)=O)CSCC(=O)N[C@@H](Cc2ccc(O)cc2)C(=O)N(C)[C@@H](C)C(=O)N[C@@H](CC(N)=O)C(=O)N2CCC[C@H]2C(=O)N[C@@H](CN)C(=O)N[C@@H](CC(C)C)C(=O)N2C[C@H](O)C[C@H]2C(=O)N[C@@H](Cc2c[nH]c3ccccc23)C(=O)N[C@@H](CO)C(=O)N[C@@H](Cc2c[nH]c3ccccc23)C(=O)N1C [Example 5165] ({CH2CO}-Y[NMeA]NP[Dap]L[Hyp]WSW[NMeNle][NMeNle]ECG-NH2; thioether N-14)	1 to 9.9
CCCC[C@H]1C(=O)N(C)[C@@H](CCCC)C(=O)N[C@@H](CCN)C(=O)NC(C(=O)NCC(N)=O)CSCC(=O)N[C@@H](Cc2ccc(O)cc2)C(=O)N(C)[C@@H](C)C(=O)N[C@@H](CC(N)=O)C(=O)N2CCC[C@H]2C(=O)N[C@@H](CC(N)=O)C(=O)N[C@@H](CC(C)C)C(=O)N2C[C@H](O)C[C@H]2C(=O)N[C@@H](Cc2c[nH]c3ccccc23)C(=O)N[C@@H](CO)C(=O)N[C@@H](Cc2c[nH]c3ccccc23)C(=O)N1C (stereo partly shown) [Example 9164] ({CH2CO}-Y[NMeA]NPNL[Hyp]WSW[NMeNle][NMeNle][Dab][ξC]G-NH2; thioether N-14)	1 to 9.9
CCCC[C@H]1C(=O)N2CCOC[C@@H]2C(=O)N[C@@H](CC(=O)O)C(=O)N[C@@H](C(C)C)C(=O)N(C)[C@@H](Cc2ccccc2)C(=O)N[C@@H](Cc2ccc(O)cc2)C(=O)N2C[C@H](O)C[C@@H]2C(=O)N[C@@H](Cc2c[nH]c3ccccc23)C(=O)N[C@@H](Cc2ccc(O)cc2)C(=O)N[C@@H](CCOC)C(=O)N[C@H](C(=O)NCC(N)=O)CSCC(=O)N[C@@H](Cc2cc(F)c(F)c(F)c2)C(=O)N(C)[C@@H](Cc2ccccc2)C(=O)N1C [Example 10183] ({CH2CO}-[Phe(3,4,5-F3)][NMeF][NMeNle][X1]DV[NMeF]Y[d(cisHyp)]WY[hSer](Me)CG-NH2; thioether N-13)	10 to 99.9
CCCC[C@H]1C(=O)N2CCC[C@@H]2C(=O)N[C@@H](CC(=O)O)C(=O)N[C@@H](C(C)C)C(=O)N(C)[C@@H](Cc2ccccc2)C(=O)N[C@@H](CCN)C(=O)N2CCOC[C@@H]2C(=O)N[C@@H](Cc2c[nH]c3ccccc23)C(=O)N[C@@H](Cc2ccc(O)cc2)C(=O)N[C@@H](CCCN)C(=O)N[C@H](C(=O)NCC(N)=O)CSCC(=O)N[C@@H](Cc2cc(F)c(F)c(F)c2)C(=O)N(C)[C@@H](Cc2ccc(O)cc2)C(=O)N1C [Example 10625] ({CH2CO}-[Phe(3,4,5-F3)][NMeY][NMeNle][dP]DV[NMeF][Dab][X1]WY[Orn]CG-NH2; thioether N-13)	10 to 99.9
CCCC[C@H]1C(=O)N[C@@H](CC(N)=O)C(=O)N2CCC[C@H]2CN[C@@H](CO)C(=O)N[C@@H](CCO)C(=O)N2CCC[C@H]2C(=O)N[C@@H](Cc2c[nH]c3ccccc23)C(=O)N[C@@H](CN)C(=O)N[C@@H](Cc2c[nH]c3ccccc23)C(=O)N(C)[C@@H](C)C(=O)N(C)[C@@H](C)C(=O)N[C@@H](CCCNC(=N)N)C(=O)NC(C(=O)NCC(N)=O)CSCC(=O)N[C@@H](Cc2ccc(O)cc2)C(=O)N1C (stereo partly shown) [Example 10196]	1000 to 10000
CCCC[C@H]1C(=O)N2C[C@@H](O)C[C@@H]2C(=O)N[C@@H](CC(=O)O)C(=O)N[C@@H](C(C)C)C(=O)N(C)[C@@H](Cc2ccccc2)C(=O)N[C@@H](CCC(=O)O)C(=O)N2C[C@H](O)C[C@@H]2C(=O)N[C@@H](Cc2c[nH]c3ccccc23)C(=O)N[C@@H](Cc2ccc(O)cc2)C(=O)N[C@@H](CC(C)C)C(=O)N[C@H](C(=O)NCC(N)=O)CSCC(=O)N[C@@H](Cc2cc(F)c(F)c(F)c2)C(=O)N(C)[C@@H](Cc2ccccc2)C(=O)N1C [Example 9369] ({CH2CO}-[Phe(3,4,5-F3)][NMeF][NMeNle][dHyp]DV[NMeF]E[d(cisHyp)]WYLCG-NH2; thioether N-13)	1 to 9.9
CCCC[C@H]1C(=O)N2CCC[C@@H]2C(=O)N[C@@H](CC(=O)O)C(=O)N[C@@H](C(C)C)C(=O)N(C)[C@@H](Cc2ccccc2)C(=O)N[C@@H](CCN)C(=O)N2CCOC[C@@H]2C(=O)N[C@@H](Cc2c[nH]c3ccccc23)C(=O)N[C@@H](Cc2ccc(O)cc2)C(=O)N[C@@H](CCC(=O)O)C(=O)N[C@H](C(=O)NCC(N)=O)CSCC(=O)N[C@@H](Cc2cc(F)c(F)c(F)c2)C(=O)N(C)[C@@H](Cc2ccc(O)cc2)C(=O)N1C [Example 10624] ({CH2CO}-[Phe(3,4,5-F3)][NMeY][NMeNle][dP]DV[NMeF][Dab][X1]WYECG-NH2; thioether N-13)	10 to 99.9

The next lines start with the values.

IC50 [nM]	SMILES
10 to 99.9	CCCC[C@H]1C(=O)N2CC[C@@H]2C(=O)N[C@@H](CC(=O)O)C(=O)N[C@@H](C(C)C)C(=O)N(C)[C@@H](Cc2ccccc2)C(=O)N[C@@H](CCC(=O)O)C(=O)N2CCOC[C@@H]2C(=O)N[C@@H](Cc2c[nH]c3ccccc23)C(=O)N[C@@H](Cc2ccc(O)cc2)C(=O)N[C@@H](CCCN)C(=O)N[C@H](C(=O)NCC(N)=O)CSCC(=O)N[C@@H](Cc2cc(F)c(F)c(F)c2)C(=O)N(C)[C@@H](Cc2ccccc2)C(=O)N1C [Example 3643] ({CH2CO}-[Phe(3,4,5-F3)][NMeF][NMeNle][dAze]DV[NMeF]E[X1]WY[Orn]CG-NH2; thioether N-13)
10 to 99.9	CCCC[C@H]1C(=O)N(C)[C@@H](CCCC)C(=O)N[C@@H](CCCN)C(=O)N[C@H](C(=O)NCC(N)=O)CSCC(=O)N[C@@H](Cc2ccc(O)cc2)C(=O)N2CCNC[C@H]2C(=O)N[C@@H](CC(N)=O)C(=O)N2CCC[C@H]2C(=O)N[C@@H](Cc2c[nH]cn2)C(=O)N[C@@H](CC(C)C)C(=O)N2C[C@H](O)C[C@H]2C(=O)N[C@@H](Cc2c[nH]c3ccccc23)C(=O)N[C@@H](CO)C(=O)N[C@@H](Cc2c[nH]c3ccccc23)C(=O)N1C [Example 1535]
1 to 9.9	CCCC[C@H]1C(=O)N2C[C@H](O)C[C@@H]2C(=O)N[C@@H](CC(=O)O)C(=O)N[C@@H](C(C)C)C(=O)N(C)[C@@H](Cc2ccccc2)C(=O)N[C@@H](CCCN)C(=O)N2CCNC[C@@H]2C(=O)N[C@@H](Cc2c[nH]c3ccccc23)C(=O)N[C@@H](Cc2ccc(O)cc2)C(=O)N[C@@H](CCO)C(=O)N[C@H](C(=O)NCC(N)=O)CSCC(=O)N[C@@H](Cc2cc(F)c(F)c(F)c2)C(=O)N(C)[C@@H](Cc2ccccc2)C(=O)N1C [Example 10169] ({CH2CO}-[Phe(3,4,5-F3)][NMeF][NMeNle][d(cisHyp)]DV[NMeF][Orn][dPip(4-aza)]WY[hSer]CG-NH2; thioether N-13)
1 to 9.9	CCCC[C@H]1C(=O)N2CCOC[C@@H]2C(=O)N[C@@H](CC(=O)O)C(=O)N[C@@H](C(C)C)C(=O)N(C)[C@@H](Cc2ccccc2)C(=O)N[C@@H](Cc2ccc(O)cc2)C(=O)N2CCOC[C@@H]2C(=O)N[C@@H](Cc2c[nH]c3ccccc23)C(=O)N[C@@H](Cc2ccc(O)cc2)C(=O)N[C@@H](CC(C)C)C(=O)N[C@H](C(=O)NCC(N)=O)CSCC(=O)N[C@@H](Cc2cc(F)c(F)c(F)c2)C(=O)N(C)[C@@H](Cc2ccccc2)C(=O)N1C [Example 9283] ({CH2CO}-[Phe(3,4,5-F3)][NMeF][NMeNle][X1]DV[NMeF]Y[X1]WYLCG-NH2; thioether N-13)
1 to 9.9	CCCC[C@H]1C(=O)N2C[C@@H](O)C[C@@H]2C(=O)N[C@@H](CC(=O)O)C(=O)N[C@@H](C(C)C)C(=O)N(C)[C@@H](Cc2ccc(F)cc2)C(=O)N[C@@H](CCCN)C(=O)N2CCC[C@@H]2C(=O)N[C@@H](Cc2c[nH]c3ccccc23)C(=O)N[C@@H](Cc2ccc(O)cc2)C(=O)N[C@@H](CC(C)C)C(=O)N[C@H](C(=O)NCC(N)=O)CSCC(=O)N[C@@H](Cc2cc(F)c(F)c(F)c2)C(=O)N(C)[C@@H](Cc2ccccc2)C(=O)N1C [Example 10118] ({CH2CO}-[Phe(3,4,5-F3)][NMeF][NMeNle][dHyp]DV[NMePhe(4-F)][Orn][dP]WYLCG-NH2; thioether N-13)
1000 to 10000	CCCC[C@H]1C(=O)N(C)[C@@H](CCCC)C(=O)N(C)CC(=O)N[C@H](C(=O)NCC(N)=O)CSCC(=O)N[C@@H](Cc2ccc(O)cc2)C(=O)N(C)[C@@H](C)C(=O)N[C@@H](CC(N)=O)C(=O)N2CCC[C@H]2C(=O)N[C@@H](Cc2c[nH]cn2)C(=O)N[C@@H](CCC(N)=O)C(=O)N2C[C@H](O)C[C@H]2C(=O)N[C@@H](Cc2c[nH]c3ccccc23)C(=O)N[C@@H](CO)C(=O)N[C@@H](Cc2c[nH]c3ccccc23)C(=O)N1C [Example 5263] ({CH2CO}-Y[NMeA]NPHQ[Hyp]WSW[NMeNle][NMeNle][Sar]CG-NH2; thioether N-14)
100 to 990	CCCC[C@H]1C(=O)N(C)CC(=O)N[C@@H](CC(=O)O)C(=O)N[C@@H](C(C)C)C(=O)N(C)[C@@H](Cc2ccccc2)C(=O)N[C@@H](Cc2ccc(O)cc2)C(=O)N(C)CC(=O)N[C@@H](Cc2c[nH]c3ccccc23)C(=O)N[C@@H](Cc2ccc(O)cc2)C(=O)N[C@@H](CC(C)C)C(=O)N[C@H](C(=O)NCC(N)=O)CSCC(=O)N[C@@H](Cc2ccncc2)C(=O)N(C)[C@@H](Cc2ccccc2)C(=O)N1C [Example 3242] ({CH2CO}-[4Pal][NMeF][NMeNle][Sar]DV[NMeF]Y[Sar]WYLCG-NH2; thioether N-13)
